In PubChem BioAssay AID330 (DTP/NCI, 2004):
Several values for one entry are separate records, joined by “and”; a condition that tells them apart may be missing. Equal values may be shown once. Toxic doses and inconclusive results are not listed. The calls were made as follows: active = survival T/C of 150% or more; inactive = T/C below 125% in these data.

System: P388 leukemia ip, CD2F1 mice, survival T/C
Assay: NCI In Vivo Anticancer Drug Screen. Data for tumor model P388 Leukemia (intraperitoneal) in CD2F1 (CDF1) mice
Details: endpoint: median survival time, higher = longer survival
Procedure, shortened: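 Mice carrying the transplanted tumor received test compound or vehicle. Survival was recorded in each group, and the value is the treated-group measurement divided by that of the vehicle-treated control group.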

[1] = dose: 6.25 mg/kg/injection, schedule: Q01DX009 (ip), vehicle: saline
[2] = dose: 12.5 mg/kg/injection, schedule: Q01DX009 (ip), vehicle: saline
[3] = dose: 25.0 mg/kg/injection, schedule: Q01DX009 (ip), vehicle: saline
[4] = dose: 50.0 mg/kg/injection, schedule: Q01DX009 (ip), vehicle: saline
[5] = dose: 25.0 mg/kg/injection, schedule: Q01DX009 (ip), vehicle: saline with Tween-80
[6] = dose: 50.0 mg/kg/injection, schedule: Q01DX009 (ip), vehicle: saline with Tween-80
[7] = dose: 100.0 mg/kg/injection, schedule: Q01DX009 (ip), vehicle: saline with Tween-80
[8] = dose: 50.0 mg/kg/injection, schedule: Q01DX005 (ip), vehicle: saline
[9] = dose: 100.0 mg/kg/injection, schedule: Q01DX005 (ip), vehicle: saline
[10] = dose: 200.0 mg/kg/injection, schedule: Q01DX005 (ip), vehicle: saline

Measured: T/C

CS(=O)(=O)OCC(=O)NCCNC(=O)COS(C)(=O)=O
inactive: dose: 12.5 mg/kg/injection, schedule: Q04DX003 (ip), vehicle: saline with Tween-80 100 % of control | dose: 25.0 mg/kg/injection, schedule: Q04DX003 (ip), vehicle: saline with Tween-80 108 % of control | dose: 50.0 mg/kg/injection, schedule: Q04DX003 (ip), vehicle: saline with Tween-80 120 % of control

CN(C)CCCNc1ccc(O)c2sc3ccccc3c(=O)c12
inactive: dose: 3.13 mg/kg/injection, schedule: Q01DX009 (ip), vehicle: saline 101 % of control | [1] 103 % of control | [2] 103 % of control | [3] 100 % of control

CN(c1ccc(C2=NCCN2)cc1)S(=O)(=O)c1ccc(Cc2ccc(S(=O)(=O)N(C)c3ccc(C4=NCCN4)cc3)cc2)cc1
inactive: dose: 6.25 mg/kg/injection, schedule: Q01DX005 (ip), vehicle: Klucel (hydroxypropylcellulose) (HPC) 103 % of control | dose: 12.5 mg/kg/injection, schedule: Q01DX005 (ip), vehicle: Klucel (hydroxypropylcellulose) (HPC) 97 % of control

N=C1N=Nc2nc(C3(c4nc5n(c4O)C(=N)N=N5)Cc4ccccc4C3=O)c(O)n21 (stereo unspecified)
inactive: dose: 60.0 mg/kg/injection, schedule: Q01DX005 (ip), vehicle: saline 96 % of control | dose: 120.0 mg/kg/injection, schedule: Q01DX005 (ip), vehicle: saline 103 % of control | dose: 240.0 mg/kg/injection, schedule: Q01DX005 (ip), vehicle: saline 108 % of control

C[n+]1cc2c3ccccc3ccc2c2ccccc21
inactive: dose: 12.5 mg/kg/injection, schedule: Q04DX003 (ip), vehicle: distilled water + Tween-80 113 % of control | dose: 25.0 mg/kg/injection, schedule: Q04DX003 (ip), vehicle: distilled water + Tween-80 105 % of control

CCOC(=O)CC1Cc2ccc3ccc(OC)cc3c2C1=O (stereo unspecified)
inactive: dose: 12.5 mg/kg/injection, schedule: Q01DX009 (ip), vehicle: distilled water + Tween-80 102 % of control | dose: 25.0 mg/kg/injection, schedule: Q01DX009 (ip), vehicle: distilled water + Tween-80 100 % of control | dose: 50.0 mg/kg/injection, schedule: Q01DX009 (ip), vehicle: distilled water + Tween-80 95 % of control | dose: 100.0 mg/kg/injection, schedule: Q01DX009 (ip), vehicle: distilled water + Tween-80 97 % of control | dose: 200.0 mg/kg/injection, schedule: Q01DX009 (ip), vehicle: distilled water + Tween-80 93 % of control

O=C(Nc1cc(Cl)ccc1Cl)Nc1ccc(Cl)cc1C(=O)c1ccccc1
inactive: dose: 15.0 mg/kg/injection, schedule: Q01DX005 (ip), vehicle: saline with Tween-80 89 % of control | dose: 30.0 mg/kg/injection, schedule: Q01DX005 (ip), vehicle: saline with Tween-80 90 % of control | dose: 240.0 mg/kg/injection, schedule: Q01DX005 (ip), vehicle: saline with Tween-80 90 % of control

CC(=O)N1c2ccccc2N(C(C)=O)c2nc3ccccc3nc21
inactive: dose: 50.0 mg/kg/injection, schedule: Q01DX009 (ip), vehicle: Klucel (hydroxypropylcellulose) (HPC) 100 % of control | dose: 100.0 mg/kg/injection, schedule: Q01DX009 (ip), vehicle: Klucel (hydroxypropylcellulose) (HPC) 100 % of control | dose: 200.0 mg/kg/injection, schedule: Q01DX009 (ip), vehicle: Klucel (hydroxypropylcellulose) (HPC) 100 % of control

CC(C)(CS)C(=O)O
inactive: [4] 103 % of control

Cn1c(=O)c2nc(-c3ccccc3)c(-c3ccccc3)nc2n(C)c1=O
inactive: dose: 12.5 mg/kg/injection, schedule: Q01DX009 (ip), vehicle: saline with Tween-80 96 % of control | [5] 96 % of control | [6] 107 % of control | [7] 107 % of control

CCOc1ccc(C(C)c2cc3c(cc2OCC)OCO3)c(C)c1 (stereo unspecified)
inactive: dose: 50.0 mg/kg/injection, schedule: Q01DX005 (ip), vehicle: Klucel (hydroxypropylcellulose) (HPC) 109 % of control | dose: 100.0 mg/kg/injection, schedule: Q01DX005 (ip), vehicle: Klucel (hydroxypropylcellulose) (HPC) 103 % of control | dose: 200.0 mg/kg/injection, schedule: Q01DX005 (ip), vehicle: Klucel (hydroxypropylcellulose) (HPC) 112 % of control

CNC(=O)Nc1ccncc1
inactive: [2] 112 % of control | [3] 102 % of control | [4] 100 % of control

c1ccc(/C(=N\Nc2ccccn2)c2ccccn2)cc1
inactive: dose: 50.0 mg/kg/injection, schedule: Q01DX005 (ip), vehicle: saline with Tween-80 112 % of control | dose: 100.0 mg/kg/injection, schedule: Q01DX005 (ip), vehicle: saline with Tween-80 117 % of control | dose: 200.0 mg/kg/injection, schedule: Q01DX005 (ip), vehicle: saline with Tween-80 108 % of control

[CH3][Ge]([CH3])([Cl])[c]1cc[c]([Ge]([CH3])([CH3])[Cl])cc1
inactive: dose: 3.12 mg/kg/injection, schedule: Q01DX009 (ip), vehicle: saline 96 % of control | [1] 94 % of control | [2] 113 % of control and 92 % of control | [4] 110 % of control | dose: 50.0 mg/kg/injection, schedule: Q04DX003 (ip), vehicle: saline 118 % of control | dose: 100.0 mg/kg/injection, schedule: Q04DX003 (ip), vehicle: saline 89 % of control

C[C@H]1C(=O)N(C)C(=O)[C@@H]1N
inactive: [8] 97 % of control | [9] 97 % of control | [10] 95 % of control

c1ccc(C2c3ccccc3Nc3ccccc32)cc1
inactive: dose: 6.25 mg/kg/injection, schedule: Q04DX002 (ip), vehicle: saline with Tween-80 104 % of control | dose: 12.5 mg/kg/injection, schedule: Q04DX002 (ip), vehicle: saline with Tween-80 97 % of control | dose: 25.0 mg/kg/injection, schedule: Q04DX002 (ip), vehicle: saline with Tween-80 97 % of control

CC1(C)CC(=O)C=C(NCCO)C1
inactive: [8] 96 % of control | [9] 91 % of control | [10] 96 % of control

COC(=O)C(Cc1c[nH]c2ccccc12)N1CN(C)c2ccccc2C1=O (stereo unspecified)
inactive: dose: 60.0 mg/kg/injection, schedule: Q01DX005 (ip), vehicle: Klucel (hydroxypropylcellulose) (HPC) 98 % of control | dose: 120.0 mg/kg/injection, schedule: Q01DX005 (ip), vehicle: Klucel (hydroxypropylcellulose) (HPC) 98 % of control | dose: 240.0 mg/kg/injection, schedule: Q01DX005 (ip), vehicle: Klucel (hydroxypropylcellulose) (HPC) 90 % of control

COc1ccc2ccccc2c1C1=CC(c2ccccc2)C(c2cc(C)n(-c3ccccc3)n2)C(=O)N1 (stereo unspecified)
inactive: dose: 100.0 mg/kg/injection, schedule: Q04DX002 (ip), vehicle: saline with Tween-80 101 % of control | dose: 200.0 mg/kg/injection, schedule: Q04DX002 (ip), vehicle: saline with Tween-80 106 % of control

O=C1NN(c2ccccc2)C(=O)/C1=C\c1ccccc1O
inactive: [5] 100 % of control and 96 % of control | dose: 43.75 mg/kg/injection, schedule: Q01DX005 (ip), vehicle: Klucel (hydroxypropylcellulose) (HPC) 104 % of control | dose: 43.75 mg/kg/injection, schedule: Q01DX009 (ip), vehicle: Klucel (hydroxypropylcellulose) (HPC) 95 % of control | [6] 94 % of control and 98 % of control | dose: 87.5 mg/kg/injection, schedule: Q01DX005 (ip), vehicle: Klucel (hydroxypropylcellulose) (HPC) 97 % of control | [7] 86 % of control and 97 % of control | dose: 175.0 mg/kg/injection, schedule: Q01DX005 (ip), vehicle: Klucel (hydroxypropylcellulose) (HPC) 98 % of control | dose: 175.0 mg/kg/injection, schedule: Q01DX009 (ip), vehicle: Klucel (hydroxypropylcellulose) (HPC) 102 % of control | dose: 200.0 mg/kg/injection, schedule: Q01DX009 (ip), vehicle: saline with Tween-80 86 % of control and 96 % of control | dose: 350.0 mg/kg/injection, schedule: Q01DX005 (ip), vehicle: Klucel (hydroxypropylcellulose) (HPC) 92 % of control | dose: 350.0 mg/kg/injection, schedule: Q01DX009 (ip), vehicle: Klucel (hydroxypropylcellulose) (HPC) 109 % of control | dose: 400.0 mg/kg/injection, schedule: Q01DX009 (ip), vehicle: saline with Tween-80 111 % of control
